Source: patent US11674962B2, “Therapeutic and diagnostic methods for cancer” (Genentech, Inc., priority 2017, dated 2023)
“And” between values parts separate entries of the source, which are not always exact repeats. Equal entries are not always repeated.

Tested on: locally advanced or metastatic non-small cell lung cancer (NSCLC)
Test: POPLAR phase II clinical trial (NCT01903993): atezolizumab vs docetaxel, outcomes by bTMB score
Type: in vivo, human
Conditions: for OS HR (95% CI) / PFS HR (95% CI) / OS HR / PFS HR: atezolizumab vs docetaxel
Method: A blood-based assay was used to evaluate the association between clinical response to treatment with atezolizumab (MPDL3280A) and blood tumor mutational burden (bTMB) score in patients with non-small cell lung cancer (NSCLC) enrolled in two clinical trials, a phase II clinical trial, POPLAR (Clinical Trial ID No.: NCT01903993), and a phase III clinical trial, OAK (Clinical Trial ID No.: NCT02008227), in which atezolizumab was administered as a monotherapy.
Pre-treatment blood samples from patients with NSCLC who were enrolled in the POPLAR and/or the OAK studies, in which atezolizumab was administered as a monotherapy, were evaluated for bTMB score and/or maximum somatic allele frequency (MSAF).
The POPLAR (Clinical Trial ID No.: NCT01903993) patient population evaluated for bTMB score consisted of 273 patients. Patients were eligible for enrollment in the POPLAR study if they had locally advanced or metastatic (e.g., stage IIIB, stage IV, or recurrent) non-small cell lung cancer (NSCLC); disease progression during or following treatment with a prior platinum-containing regimen for locally advanced, unresectable/inoperable, or metastatic NSCLC, or disease recurrence within 6 months of treatment with a platinum-based adjuvant/neoadjuvant regimen; measurable disease, as defined by RECIST v1.1; and an Eastern Cooperative Oncology Group (ECOG) performance status of 0 or 1. Participants were randomized to receive either atezolizumab at a dose of 1200 mg intravenously every three weeks or docetaxel 75 mg per meter square (mg/m^2) intravenously every three weeks. Treatment with atezolizumab could be continued as long as participants were experiencing clinical benefit, i.e., in the absence of unacceptable toxicity or symptomatic deterioration attributed to disease progression.
Analysis of bTMB was performed retrospectively. Progression-free survival (PFS) was defined as the time between date of randomization and date of first documented disease progression as assessed by the investigator using RECIST v.1.1 or death from any cause, whichever occurred first. Overall survival (OS) was defined as the time between the date of randomization until death due to any cause. Treatment arms were compared for OS and PFS individually using a univariate Cox regression model without stratification in the biomarker evaluable-population (BEP) and their subgroups or using a stratified (by randomization stratification factors) Cox model in the ITT population. No multiplicity correction was applied to p-values or confidence intervals (CI). Kaplan-Meier methodology was used to estimate median OS and PFS and construct survival curves.
In the POPLAR ITT population (N=287), 273 samples were available for analysis. Of these, 6 were removed for sample contamination >1%; 9 were removed for median exon coverage <800×; and 47 were removed for low MSAF<1%.
The POPLAR BEP (N=211) includes 15 patients with EGFR mutation or ALK rearrangement, and 196 without known alterations.
To identify somatic mutations and calculate a bTMB score, whole blood samples obtained from each patient (collected in EDTA or Streck tubes) were processed through a series of spins to isolate plasma, from which cell free DNA (cfDNA) was extracted for sequencing analysis. Specifically, at least 20 ng purified cfDNA was used for library construction. Next-generation sequencing libraries using fragment barcodes and hybrid capture were constructed to analyze and sequence a pre-determined set of 394 genes that covered approximately 1.125 Mb of the exome. Specifically, purified libraries were hybrid captured using a 394-gene bait set and then further purified, pooled and loaded on an ILLUMINA® HISEQ® 4000 sequencing system. Sequenced libraries were aligned and sorted. […]

[1] = bTMB score subgroup ≥10 (96 patients)
[2] = bTMB score subgroup ≥16 (63 patients)
[3] = bTMB score subgroup ≥20 (42 patients)

atezolizumab
OS HR (95% CI) (BEP (n = 211)): 0.68
PFS HR (95% CI) (BEP (n = 211)): 0.9
OS HR (95% CI) (ITT (n = 287)): 0.69 and 0.73
PFS HR (95% CI) (ITT (n = 287)): 0.92 and 0.94
OS HR [1]: 0.59
PFS HR [1]: 0.68
OS HR [2]: 0.56
PFS HR [2]: 0.57
OS HR [3]: 0.51
PFS HR [3]: 0.58
median OS (bTMB≥16, per treatment arm): 13.0 months
median PFS (bTMB≥16, per treatment arm): 4.2 months
PFS HR (reference bTMB score of 18 (Dx+, n=52)): 0.57
